This is an account of results in publication PMC5771956 (Nature chemical biology, 2017).

Test [1] concerns the target T1, D2 I184A^EL2 mutant (Homo sapiens, UniProt P14416, I184A). Nature of the test: cell-based. It is filed as cell-based. The note with it: for effect of I184A mutation on β-arrestin2 recruitment: Tango.
The target of test [2] is T2, D2 dopamine receptor (D2R) (Homo sapiens, UniProt P14416). The test can be described thus: cell-based. The note with it: for Emax: read-out: D2 Gi/o Emax, D2 wild-type, normalized to quinpirole.
T2 sequence (P14416 whole entry): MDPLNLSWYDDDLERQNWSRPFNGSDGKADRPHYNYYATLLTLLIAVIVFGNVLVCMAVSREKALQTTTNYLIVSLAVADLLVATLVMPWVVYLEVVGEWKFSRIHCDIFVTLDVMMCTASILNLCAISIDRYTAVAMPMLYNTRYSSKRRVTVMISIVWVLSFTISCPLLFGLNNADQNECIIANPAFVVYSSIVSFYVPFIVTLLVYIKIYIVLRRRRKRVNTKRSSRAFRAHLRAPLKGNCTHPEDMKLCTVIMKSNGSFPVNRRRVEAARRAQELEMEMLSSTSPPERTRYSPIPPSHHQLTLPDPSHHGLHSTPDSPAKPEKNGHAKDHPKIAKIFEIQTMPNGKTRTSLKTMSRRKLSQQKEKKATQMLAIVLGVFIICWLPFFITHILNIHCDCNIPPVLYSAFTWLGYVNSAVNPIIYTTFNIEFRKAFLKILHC
For test [3], the target named is human D2Long (Homo sapiens, UniProt P14416). The test can be described thus: cell-based. Conditions: for Emax: read-out: D2 β-arrestin2 Emax, D2 wild-type, Tango, normalized to quinpirole.
Chain of human D2Long (P14416 whole entry): as above
Test [4] addresses T2, D2 dopamine receptor (D2R). The test can be described thus: Bias calculation, Gi/o activity versus β-arrestin2 recruitment. The class given is cell-based. Conditions: for bias factor: arrestin recruitment over Gi/o signaling, relative to quinpirole.
In test [5] the target is T1, D2 I184A^EL2 mutant. Nature of the test: Competitive binding kinetics with [3H] NMSP at I184A mutant.
Test [6] has as its system β2AR EL2.52 F194 mutants (alanine, leucine, isoleucine). Nature of the test: β-arrestin2 recruitment by Tango at β2AR EL2 mutants. The class given is cell-based.

Entries after “also recorded” stand apart in the source; their conditions may differ.

T1 sequence (P14416 whole entry I184A): as the sequence (P14416 whole entry) above, with I184A counted along it

As to `Clc1cccc(C2CCN(CCCOc3ccc4scnc4c3)CC2)c1Cl` [UNC 9994, reference compound], the “effect of I184A mutation on β-arrestin2 recruitment” value (from here on “effect of I184A mutation”) in test [1] is recorded as “no change in arrestin recruitment efficacy”.

On to `Cc1cc2c(N3CCN(CCCCOc4ccc5c(c4)NC(=O)CC5)CC3)cccc2n1C` [compound 7, 7-(4-(4-(1,2-Dimethyl-1H-indol-4-yl)piperazin-1-yl)butoxy)-3,4-dihydroquinolin-2(1H)-one], for which, in test [2], the Emax worked out at 60%. Also, in test [3], the Emax was found to be 78%. Also, the “effect of I184A mutation” value in test [1] is recorded as “almost completely abolishes”. Also, in test [4], the bias factor is listed as 20. In addition, in test [5], the “increase in off-rate at I184A compared to D2R wild-type” value was 6.2 fold and the “increase in on-rate at I184A compared to D2R wild-type” value is 6.7 fold.

On to `O=C1CCc2ccc(OCCCCN3CCCN(c4cccc(Cl)c4Cl)CC3)nc2N1` [UNC 9975, reference compound], for which the “effect of I184A mutation” value in test [1] is on record as “no change in arrestin recruitment efficacy”.

As for `CC(C)NC[C@H](O)c1ccc(O)c(O)c1` [isoproterenol, (−)-isoproterenol bitartrate], the “β-arrestin2 recruitment at β2AR EL2 mutants” value in test [6] is given as “substantially reduced”.

Take `Cc1cc2c(N3CCN(CCCCOc4ccc5c(c4)NC(=O)CC5)CC3)cccc2[nH]1` [compound 6, 7-(4-(4-(2-methyl-1H-indol-4-yl)piperazin-1-yl)butoxy)-3,4-dihydroquinolin-2(1H)-one]: the EC50 in test [2] turned out to be 0.49 nM; in test [3], 0.62 nM; in test [1] it was 2.7 nM. The Emax was determined as 86% in test [2], 78% in test [3] and 40% in test [1] (read-out: β-arrestin2 Emax at I184A). The “effect of I184A mutation” value in test [1] is “selectively abolishing; also recorded: partial but not complete loss of arrestin recruitment efficacy”. For the same compound, the “SFSR summary (signaling profile)” value in test [4] (Gi/o versus arrestin activity) is “no preference for arrestin recruitment over G protein activation”. Moreover, the bias factor in test [4] is reported as 1.3.
